# Several values for one entry are separate records, joined by “and”; a condition that tells them apart may be missing. Equal entries are not always repeated. Entries after “also recorded” stand apart in the source; their conditions may differ.
# Tests used:
# [1] = tested on: hippocampal CA3 pyramidal neurons; assay: Whole-cell voltage clamp recordings of sEPSCs in offspring after maternal pretreatment; type: in vivo, rat; conditions: P15 rats, maternal SSR pretreatment (1 mg/kg in drinking water); result in words
# Procedure: Standard whole-cell recordings were performed in coronal neocortical rat or mouse brain slices at room temperature (20-22° C.) from the soma of hippocampal CA3 neurons using an EPC-10 (HEKA Elektronik, Germany) amplifier and filtered at 3-10 kHz. The internal solution contained (in mM): 130 K-gluconate, 10 Na-gluconate, 4 NaCl, 4 MgATP, 4 phosphocreatine, 10 HEPES, and 0.3 GTP (pH 7.3 with KOH). Biocytin (final concentration 0.3-0.5%) was added to the pipette solution to label the neurons from which recordings were obtained. Neurons were visualized by using infrared DIC video microscopy. Spontaneous postsynaptic currents were recorded for […] at the reversal potentials for […] currents (−70 mV). It should be specifically noted that all recordings were made in normal ACSF (1.3 mM MgCl2). Stored data were analyzed using the Mini Analysis 6.0.3 (Synaptosoft Inc., Chapell Hill, N.C.) and Origin (MicroCal, Northampton, Mass.) software. To minimize potential sampling bias, the pups from at least three deliveries for each condition were studied. Data are expressed as mean±S.E.M.
# Bumetanide (10 μM), Oxytocin (1 μM) and Isoguvacine (2 μM) were directly added to the perfusion solutions. Bumetanide pretreatment (2-2.5 mg/kg) was given to the dams in drinking water. All drugs used were purchased from Sigma. […]
# [2] = tested on: Valproate rat model of autism; assay: In vivo EEG recordings in the CA3 area of hippocampus of head-restrained rats; conditions: VPA rats P13-15
# Procedure: (§1) Time-mated female Wistar rats at gestational day E7-8 were housed under standard laboratory conditions. The in utero valproic acid (VPA) rodent model of autism spectrum disorders has been previously described in detail. Briefly, the sodium salt of VPA (Sigma-Aldrich) was dissolved in physiological saline solution to a concentration of 300 mg/ml. Pregnant rats received a single intra-peritoneal dose of 600 mg/kg on gestational day 12 (E12). The control dams received a single similar volume injection of saline at the same gestational time-point. Dams were housed individually and allowed to raise their own litters. The offspring were used for experiments on embryonic day 20 (E20) and postnatal (P) days 0, 2, 4, 7, 15 and 30 (after being weaned at P23). Experiments were carried out on offspring of either sex.
# Head-fixed rat pups of age P13-P15 were prepared for extracellular recording under isoflurane anesthesia. The skin and periosteum were removed from the skull, which was then covered by glue and dental cement except for a 4-9 mm^2 window above the somatosensory cortex from one or two hemispheres for the silicon probe penetration (4.0-4.2 mm lateral to midline and 2.2-2.5 mm caudal to bregma) and for the reference electrode (1.0-1.5 mm lateral to midline and 6.0-6.5 mm caudal to bregma). The rat was positioned in the stereotaxic apparatus. A 1 mm-diameter burr hole was drilled in the skull; the dura was cut and removed. Recordings were made 1 h after recovery from anesthesia. Pups were kept restrained for <3 h and were closely monitored for signs of stress and to ensure that they spent a normal proportion of their time sleeping. The outside temperature was maintained between 35 and 36° C. The animals were kept in low-light conditions throughout all experiments. 16-site linear silicone probe (NeuroNexus Technologies) coupled to a direct-current amplifier (Molecular Devices) and dunked previously in fluorescent dye (DiI, Invitrogen) was slowly penetrated via the hole at […] depth under the angle 30° in the coronal plane. EEGs were recorded during 2 hours, using a 16-channel amplifier (A-M System, Inc.) and digitized at 5 kHz using Axoscope software (Molecular Deviced). Recordings were amplified and high-pass filtered at 0.3 Hz in Axoscope. Silicone probe location was verified postmortem via dye localization. To quantify the frequency band integral power the traces were band-pass filtered at frequency bands […]) θ-(4-7 Hz), α-(7-12 Hz), β-(12-25 Hz), Low γ-(25-60 Hz), High γ-(60-120 Hz) and Fast oscillations-(120-500 Hz)). Fast Fourier Transform (FFT) was applied with Clampfit (Molecular Devices). Integrals of FFT power spectra were taken and averaged with OriginPro (OriginLab Corporation).
# (§2) Bumetanide (10 μM), Oxytocin (1 μM) and Isoguvacine (2 μM) were directly added to the perfusion solutions. Bumetanide pretreatment (2-2.5 mg/kg) was given to the dams in drinking water. All drugs used were purchased from Sigma. SSR126768A (Sanofi-Synthelabo) pretreatment (1 mg/kg) was given to the dams in drinking water.
# [3] = tested on: Valproate rat model of autism; assay: Isolation-induced ultrasonic vocalizations; type: in vivo; conditions: P4 VPA rats
# Procedure: as §1
# To induce ultrasonic vocalizations, […], and were placed into an isolation box (23×28×18 cm) located inside a sound attenuating isolation cubicle (54×57×41 cm; Coulbourn Instruments, Allentown, Pa., USA), and evaluated for ultrasonic vocalizations during a three minutes test. An ultrasound microphone (Avisoft UltraSoundGate Condenser microphone capsule CM16/CMPA, Avisoft Bioacoustics, Berlin, Germany), placed in the roof of the box, was sensitive to frequencies of 10 to 250 kHz. Vocalizations were recorded using the Avisoft Recorder software (version 4.2) with a sampling rate of 250 kHz in 16 bit format. For acoustical analysis, recordings were transferred to SASLab Pro (version 5.2; Avisoft Bioacoustics) and a fast Fourier transformation was conducted (512 FFT-length, 100% frame, Hamming window and 75% time window overlap). The accuracy of call detection was verified manually by an educated user. A Pearson correlation coefficient was computed to assess the relationship between Automatic and Manual analysis. There was 0.99 correlation between the two variables.
# as §2
# [4] = tested on: hippocampal CA3 pyramidal cells; assay: DFGABA in hippocampal CA3 pyramidal cells of offspring after in utero VPA / maternal bumetanide pretreatment; type: in vivo, rat; conditions: VPA rats (dams 600 mg/kg VPA i.p. at E12)
# Procedure: as §1
# (§3) Experiments were performed on fetuses and neonatal rat pups. We removed E20 rats from deeply anesthetized dams [subcutaneous injection of a mixture of xylazine (Rompun 2%; used at 0.05%) and ketamine (Imalgene 1000 used at 50 g/l)]. Hippocampal slices ([…] thick) were prepared using a Microm tissue slicer (International GmbH, Germany) as described previously (Tyzio et al. 2006 Science 314, 1788; Tyzio et al, 2008, Eur J. Neurosci. 27(10):2515-28). Slices were kept in oxygenated (95% O2/5% CO2) artificial cerebrospinal fluid (ACSF) of the following composition (in mM): NaCl 126, KCl 3.5, CaCl2 2.0, MgCl2 1.3, NaHCO3 25, NaH2PO4 1.2 and glucose 11 (pH 7.4) at room temperature (20-22° C.) at least 1 hour before use.
# For recordings, slices were placed into a conventional fully submerged chamber superfused with ACSF at a rate of 2-3 ml/min at room temperature. Patch clamp recordings from visually identified CA3 pyramidal cells in cell-attached configuration were performed using EPC-10 amplifier (HEKA Elektronik Dr. Schulze GmbH, Lambrecht/Pfalz, Germany). Patch pipette solution for recordings of single GABAA channels contained (in mM): NaCl 120, KCl 5, TEA-Cl 20, 4-aminopyridine 5, CaCl2 0.1, MgCl2 10, glucose 10, Hepes-NaOH 10 buffered to pH 7.2-7.3 and GABA 2 μM. Analysis of currents through single channels and current-voltage relationships were performed using Clampfit 9.2 (Axon Instruments, Union City, Calif.). Recordings were digitized (10 kHz) online with Digidata-1200 interface card (Axon Instruments, Union City, Calif.) and analyzed offline with Axon package, MiniAnalysis (S (Synaptsoft, Decatur, Ga.), and Origin (Microcal Software, Northampton, Mass.).
# as §2
# If the polarity of GABA actions at delivery produces long terms effects in offsprings, then restoring low [Cl^−]i and inhibitory GABA at delivery might restore physiological parameters in juvenile rodents. To test this hypothesis, pregnant females were treated orally 1 day before delivery with bumetanide (2-2.5 mg/kg in drinking water) and juvenile offspring neurons recorded at P15. […] In VPA rats, GABAergic inputs are excitatory and contribute to hyperexcitability of the network. Bumetanide decreases [Cl^−]i and consequently reduces contribution of excitatory GABAergic inputs in the overall network activity.
# [5] = tested on: hippocampal slices; assay: Effects of isoguvacine on spike frequency, extracellular field potential recordings in hippocampal slices; type: cell-based, rat; conditions: P15
# Procedure: as §3
# Extracellular field potentials and multi-unit activity (MUA) recordings Recording were made in the hippocampal slices using tungsten wire electrodes (diameter: 50 μm, California Fine Wire, Grover Beach, Calif.) and a low-noise multichannel DAM-8A amplifiers (WPI, GB; […]; gain: ×1000). The signals were digitized using an analogue-to-digital converter (Digidata 1440A, Axon Instruments, USA). pCLAMP 10.1, Clampfit 10.1 (Axon Instruments, USA), MiniAnalysis 6.03 (Synaptosoft, Decatur, Calif.) and Origin 7.5 (Microcal Software, USA) programs were used for the acquisition and analysis of the synaptic activities. Sampling interval per signal was 100 microseconds (10 kHz).
# as §2
# [6] = tested on: CA3 pyramidal cells; assay: Effect of isoguvacine on spontaneous spiking, cell-attached recordings; type: cell-based, rat; conditions: result in words
# Procedure: as §3
# For recordings, slices were placed into a conventional fully submerged chamber superfused with ACSF at a rate of 2-3 ml/min at room temperature. Patch clamp recordings from visually identified CA3 pyramidal cells in cell-attached configuration were performed using EPC-10 amplifier (HEKA Elektronik Dr. Schulze GmbH, Lambrecht/Pfalz, Germany). […] Recordings were digitized (10 kHz) online with Digidata-1200 interface card (Axon Instruments, Union City, Calif.) and analyzed offline with Axon package, MiniAnalysis (S (Synaptsoft, Decatur, Ga.), and Origin (Microcal Software, Northampton, Mass.). […]
compound,measurement,setting,value
CCN(Cc1cccnc1)C(=O)c1ccc(Cl)c([C@]2(C)C(=O)N(Cc3ccc(OC)cc3OC)c3ccc(Cl)cc32)c1 [SSR],spontaneous activity of neuronal networks (sEPSCs),[1],increases
"CCCC(CCC)C(=O)O [VPA, valproic acid]","Integral power spectra of EEG recordings, mean ± S.E.M.",[2]; frequency band 0.5-4 Hz,164.05 ± 39.44
same,"Integral power spectra of EEG recordings, mean ± S.E.M.",[2]; frequency band 4-7 Hz,42.01 ± 12.03
same,"Integral power spectra of EEG recordings, mean ± S.E.M.",[2]; frequency band 7-12 Hz,16.52 ± 4.32
same,"Integral power spectra of EEG recordings, mean ± S.E.M.",[2]; frequency band 12-25 Hz,16.56 ± 4.78
same,"Integral power spectra of EEG recordings, mean ± S.E.M.",[2]; frequency band 25-60 Hz,2.41 ± 0.62
same,"Integral power spectra of EEG recordings, mean ± S.E.M.",[2]; frequency band 60-120 Hz,0.74 ± 0.17
same,"Integral power spectra of EEG recordings, mean ± S.E.M.",[2]; frequency band 120-500 Hz,1.83 ± 0.42
same,"Number of calls, isolation-induced USVs mean ± S.E.M",[3],1 ± 0.5 (n = 26)
same,"Total duration of calls, isolation-induced USVs mean ± S.E.M",[3],0.04 ± 0.02 (n = 26)
same,"DFGABA (mV), mean ± S.E.",[4]; age E20,8.5 ± 0.6 (n = 9) mV
same,"DFGABA (mV), mean ± S.E.",[4]; age P0,8.2 ± 1.3 (n = 29) mV
same,"DFGABA (mV), mean ± S.E.",[4]; age P2,11.7 ± 1.4 (n = 24) mV
same,"DFGABA (mV), mean ± S.E.",[4]; age P7,9.7 ± 1.1 (n = 26) mV
same,"DFGABA (mV), mean ± S.E.",[4]; age P15,10.2±1.0 mV and 10.2 ± 1 (n = 25 mV and 10.2 ± 1.0 (n = 25) mV
same,"DFGABA (mV), mean ± S.E.",[4]; age P30,8.7 ± 0.8 (n = 25) mV
O=C(O)C1=CCNCC1 [isoguvacine],"Effects of isoguvacine on frequency of spikes in extracellular recordings (% of control), mean ± S.E.",[5]; VPA rats,"213.5 ± 16.3 (n = 6), P < 0.001 % of control"
same,"Effects of isoguvacine on frequency of spikes in extracellular recordings (% of control), mean ± S.E.","[5]; VPA rats, listed as Isoguvacine",213.5±16.3 % of control
same,"Effects of isoguvacine on frequency of spikes in extracellular recordings (% of control), mean ± S.E.",[5]; control rats,"38.9 ± 5.1 (n = 3), P < 0.001 % of control"
same,"Effects of isoguvacine on frequency of spikes in extracellular recordings (% of control), mean ± S.E.","[5]; control rats, listed as Isoguvacine",38.9±5.1 % of control
same,spike frequency in cell-attached recordings,"[6]; isoguvacine 2 μM, naive neurons, P0",inhibited or did not affected
same,spike frequency in cell-attached recordings,"[6]; isoguvacine, VPA neurons, P0 and P15",excitatory action; also recorded: increased

# From patent US9592214B2, “Compounds for the treatment of autism in a baby child” (INSERM (INSTITUT NATIONAL DE LA SANTE ET DE LA RECHERCHE …, priority 2010, dated 2017)
